Assay results published in patent US9475839B2, “Peptide-based inhibitor of interleukin-10 or interferon-gamma signaling” (THE UNITED STATES OF AMERICA, AS REPRESENTED BY THE …, priority 2010, dated 2016).
Read-outs that look alike come from different tables or passages of the source. Non-standard residues stand in square brackets, D forms with d. Residues, ends and D or L forms follow the SMILES beside them. *: point of attachment. C(fluorescein) = cysteine carrying a fluorescein label; Palmitoyl = CCCCCCCCCCCCCCCC(=O)*; Nle = CCCC[C@H](N)C(=O)O

Legend:
[1] = test system: mouse mast MC/9 cells; test: Inhibition of IL10-dependent growth of MC/9 cells, MTT assay, 48 hours; assay type: cell-based
Description: (§1) Cells were exposed to compounds for 48 hours and cell number was determined with the help of MTT assay.
(§2) Cells were exposed to IL10-HF-1 for 48 hours and cell number was determined with the help of MTT assay.
(§3) Peptides designed to mimic conserved regions of the receptor sequences were tested for the ability to inhibit IL10 and IFN-gamma signaling. Inhibition of IL10 signaling was tested in a mouse mast cell line MC/9. […] Abrogation of IFN-gamma signaling or STAT1 activation causes cell death in this cell line.

[2] = test system: MDA-MB-231 breast cancer cells; test: Inhibition of IFN-gamma-dependent growth of MDA-MB-231 cells, MTT assay, 48 hours; assay type: cell-based; conditions: 48 h
Description: as §1, §2, §3

[3] = biological target: T1, recombinant human IFN-gamma (Homo sapiens, UniProt P01579); test: Microscale thermophoresis binding to IFN-gamma; conditions: result in words
T1 sequence (P01579 24-161 limits assumed): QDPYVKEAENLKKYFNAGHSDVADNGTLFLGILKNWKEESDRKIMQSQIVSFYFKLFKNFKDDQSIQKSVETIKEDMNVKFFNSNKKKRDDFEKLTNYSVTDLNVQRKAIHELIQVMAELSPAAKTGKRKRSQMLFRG
Description: To evaluate whether synthetic helix F analogs could interact with the corresponding cytokine, fluorescent derivatives of helix F were synthesized. The helix F analogs are described below.

[4] = Table 4, compounds mimicking conserved regions of IL10R1, cell line not given, read-out: GI50

Molecule | GI50 ([1]; 48 h) | GI50 [1, 4] | further results
CCCCCCCCCCCCCCCC(=O)N[C@@H](CC(C)C)C(=O)N[C@@H](Cc1ccc(O)cc1)C(=O)N[C@H](C(=O)N[C@@H](CCCNC(=N)N)C(=O)N[C@@H](CCCNC(=N)N)C(=O)N[C@@H](CCCNC(=N)N)C(=O)N[C@@H](CCCCN)C(=O)N[C@@H](CCCCN)C(=O)N[C@@H](CC(C)C)C(=O)N1CCC[C@H]1C(=O)N[C@@H](CO)C(=O)N[C@H](C(=O)N[C@@H](CC(C)C)C(=O)N[C@@H](CC(C)C)C(=O)N[C@@H](Cc1ccccc1)C(=O)N[C@@H](CCCCN)C(=O)N[C@@H](CCCCN)C(N)=O)C(C)C)C(C)C [IL10R1-1, Pal-LYVRRRKKLPSVLLFKK-NH2] (Palmitoyl-LYVRRRKKLPSVLLFKK-NH2) | 1000 nM |  | GI50 [2]: 25 nM
CCCCCCCCCCCCCCCC(=O)NCCCC[C@H](N)C(=O)N[C@@H](CCCCN)C(=O)N[C@@H](CC(C)C)C(=O)N1CCC[C@H]1C(=O)N[C@@H](CO)C(=O)N[C@H](C(=O)N[C@@H](CC(C)C)C(=O)N[C@@H](CC(C)C)C(=O)N[C@@H](Cc1ccccc1)C(=O)N[C@@H](CCCCN)C(=O)N[C@@H](CCCCN)C(=O)N1CCC[C@H]1C(=O)N[C@@H](CO)C(N)=O)C(C)C [IL10R1-3, ε-Pal-KKLPSVLLFKKPS-NH2] (H-K(Palmitoyl)KLPSVLLFKKPS-NH2; N-terminus assumed) | 50 nM |  | GI50 [2]: 2500 nM
CCCCCCCCCCCCCCCC(=O)NCCCC[C@H](N)C(=O)N[C@@H](CC(C)C)C(=O)N[C@H](C(=O)N[C@H](C(=O)N[C@@H](CC(C)C)C(=O)N1CCC[C@H]1C(=O)N[C@@H](CC(C)C)C(=O)N[C@H](C(=O)N[C@@H](CO)C(=O)N[C@@H](CO)C(=O)N[C@@H](CC(C)C)C(=O)N[C@@H](CCC(N)=O)C(=O)N[C@@H](CO)C(=O)N[C@@H](CO)C(=O)N[C@@H](CCC(=O)O)C(N)=O)[C@@H](C)CC)[C@@H](C)O)C(C)C [IL10R1-7, ε-Pal-KLVTLPLISSLQSSE-NH2] (H-K(Palmitoyl)LVTLPLISSLQSSE-NH2; N-terminus assumed) | 5000 nM |  | 
CCCCCCCCCCCCCCCC(=O)NCCCC[C@H](N)C(=O)N1CCC[C@H]1C(=O)N1CCC[C@H]1C(=O)N[C@@H](C)C(=O)N[C@@H](CC(C)C)C(=O)N[C@@H](C)C(=O)N[C@@H](CCCCN)C(=O)NCC(=O)N[C@@H](Cc1ccc(O)cc1)C(=O)N[C@@H](CC(C)C)C(=O)N[C@@H](CCCCN)C(=O)N[C@@H](CCC(N)=O)C(N)=O [IL10R1-8, ε-Pal-KPPALAKGYLKQ-NH2] (H-K(Palmitoyl)PPALAKGYLKQ-NH2; N-terminus assumed) | 5000 nM |  | 
CCCCCCCCCCCCCCCC(=O)NCCCC[C@@H](NC(=O)[C@@H](CC(C)C)NC(=O)[C@@H](Cc1c[nH]cn1)NC(=O)CNC(=O)[C@@H](CO)NC(=O)[C@H](NC(=O)[C@@H](CC(=O)O)NC(=O)[C@@H](CO)NC(=O)CNC(=O)[C@@H](Cc1ccccc1)NC(=O)CNC(=O)[C@@H](CO)NC(=O)[C@H](NC(=O)[C@@H](CCCCN)NC(=O)[C@H]1CCCN1C(=O)[C@@H](CO)NC(=O)[C@@H](CC(C)C)NC(=O)[C@@H](CCC(N)=O)NC(=O)[C@H](NC(=O)[C@@H](CCC(=O)O)NC(=O)[C@@H](CCC(=O)O)NC(C)=O)[C@H](C)O)[C@H](C)O)[C@H](C)O)C(N)=O [IL10R1-14] (Ac-[dE][dE][dT][dQ][dL][dS][dP][dK][dT][dS]G[dF]G[dS][dD][dT][dS]G[dH][dL][dK](Palmitoyl)-NH2; C-terminus assumed) |  | 1000 nM | 
CCCCCCCCCCCCCCCC(=O)NCCCC[C@@H](NC(=O)[C@@H](CC(C)C)NC(=O)[C@@H](Cc1c[nH]cn1)NC(=O)CNC(=O)[C@@H](CO)NC(=O)[C@H](NC(=O)[C@@H](CC(=O)O)NC(=O)[C@@H](CO)NC(=O)CNC(=O)[C@@H](Cc1ccccc1)NC(=O)CNC(=O)[C@@H](CO)NC(=O)[C@H](NC(=O)[C@@H](CCCCN)NC(=O)[C@H]1CCCN1C(=O)[C@@H](CO)NC(=O)[C@@H](CC(C)C)NC(=O)[C@@H](CCC(N)=O)NC(=O)[C@H](NC(=O)[C@@H](CCC(=O)O)NC(C)=O)[C@H](C)O)[C@H](C)O)[C@H](C)O)C(N)=O [IL10R1-15] (Ac-[dE][dT][dQ][dL][dS][dP][dK][dT][dS]G[dF]G[dS][dD][dT][dS]G[dH][dL][dK](Palmitoyl)-NH2; C-terminus assumed) |  | > 5000 nM | 
CCCCCCCCCCCCCCCC(=O)NCCCC[C@@H](N)C(=O)N[C@@H](C(=O)N[C@H](CCC(N)=O)C(=O)N[C@H](CC(C)C)C(=O)N[C@H](CO)C(=O)N1CCC[C@@H]1C(=O)N[C@H](CCCCN)C(=O)N[C@@H](C(=O)N[C@H](CO)C(=O)NCC(=O)N[C@H](Cc1ccccc1)C(=O)NCC(=O)N[C@H](CO)C(=O)N[C@H](CC(=O)O)C(=O)N[C@@H](C(=O)N[C@H](CO)C(=O)NCC(=O)N[C@H](Cc1c[nH]cn1)C(=O)N[C@H](CC(C)C)C(N)=O)[C@H](C)O)[C@H](C)O)[C@H](C)O [IL10R1-17, ε-Pal-KTQLSPKTSGFGSDTSGHL-NH2] (H-[dK](Palmitoyl)[dT][dQ][dL][dS][dP][dK][dT][dS]G[dF]G[dS][dD][dT][dS]G[dH][dL]-NH2; N-terminus assumed) |  | > 5000 nM | 
CCCCCCCCCCCCCCCC(=O)NCCCC[C@H](N)C(=O)N[C@@H](CC(C)C)C(=O)N[C@H](C(=O)N[C@H](C(=O)N[C@@H](CC(C)C)C(=O)N1CCC[C@H]1C(=O)N[C@@H](CC(C)C)C(=O)N[C@H](C(=O)N[C@@H](CO)C(=O)N[C@@H](CO)C(=O)N[C@@H](CC(C)C)C(=O)N[C@@H](CCC(N)=O)C(N)=O)[C@@H](C)CC)[C@@H](C)O)C(C)C [IL10R1-27, ε-Pal-KLVTLPLISSLQ-NH2] (H-K(Palmitoyl)LVTLPLISSLQ-NH2; N-terminus assumed) | > 5000 nM |  | 
Ac-C(Fluo)VQRKAIHELIQVx^13AELSPAAKT-NH2 ({Ac-C(fluorescein)}-VQRKAIHELIQV[Nle]AELSPAAKT-NH2) [IFNG-HF-6] |  |  | Affinity for IFN-gamma [3]: unexpectedly high affinity
